Data: US20090004145A1, “COMPOSITIONS AND METHODS INVOLVING GENE THERAPY AND PROTEASOME MODULATION” (priority 2006, published 2009)
≈ marks a conversion by molar mass, not a printed value. Where two headings read alike, the source gives them in different places. *1 amine or outer side, *2 acyl side, *3 side chain or, on linkers, in order; H or OH if unused. Where a SMILES comes first, the peptide text is derived from it. Bridges are numbered along the chain shown (N, C = ends). Roman numbers before positions name the chains, in order. [ ]: non-standard residue; d: D form. Actinocin(9to1) = Cc1c2oc3c(C)ccc(C(=O)[*:1])c3nc-2c(C(=O)[*:2])c(N)c1=O; NMeV = CN[C@H](C(=O)O)C(C)C; Sar = CNCC(=O)O

What was measured:
[1] = in vivo; cited from earlier work
[2] = test system: chronic myelogenous leukemia; details: adults with previously untreated chronic myelogenous leukemia; cited from earlier work
[3] = test system: 2008 cells; test: XTT cell viability assay of CDDP-treated ovarian cancer cell lines; format: cell-based, human; details: CDDP 1 h, then 72 h incubation
Procedure: (§1) FIG. 1. Determination of IC50 values for CDDP-Treated Ovarian Cancer Cell Lines. Human ovarian tumor (2008 and 2008/C*13R) tumor cells (2×10^3) seeded in 96-well plates were treated with various doses of CDDP (0, 10, 20, 30, 60, 80, 100 μM). After 1 h of treatment, CDDP containing medium was removed and fresh medium added to the wells. Cells were incubated for 72 h following which were subjected to XTT assay to determine cell viability. Untreated cells served as controls.
as §1, with “Determination” for “FIG. 1. Determination”, “controls. […] (FIG. 1)” for “controls.”

[4] = test system: 2008/C*13R cells; test: as above; format: cell-based, human; details: CDDP 1 h, then 72 h incubation
Procedure: as §1
as §1, with “Determination” for “FIG. 1. Determination”, “controls. […] (FIG. 1)” for “controls.”

[5] = test system: 2008 cells; test: Tumor cell killing, trypan blue assay; format: cell-based, human; details: CDDP 25 μM, vector 3000 vp/cell, 72 h
Procedure: FIG. 3. Ad-mda7 plus CDDP treatment sensitizes CDDP-resistant tumor cells. CDDP-resistant (2008/C*13 R) and sensitive (2008) ovarian tumor cells were plated in six-well plates and treated with PBS, CDDP (25 μM) Ad-luc, Ad-mda7 (3000 vp/cell), Ad-mda7 plus CDDP or Ad-luc plus CDDP. Treatment schedule was as follows: pretreatment with CDDP for 1 h, washed with PBS to remove any residual CDDP and then infect with Ad-mda7 for 3 h in serum free medium followed by replenishment of complete medium. Cells were harvested at 72 h after treatment and number of dead cells counted by the trypan blue assay.
FIG. 8. CDDP-resistant tumor cells are more sensitive to Ad-mda7. […] Cells were harvested on day 3 and day 5 after treatment and number of dead cells counted by the trypan blue assay and analyzed for apoptotic markers by western blotting. […]
Next, CDDP-resistant (2008/C*13 R) and sensitive (2008) ovarian tumor cells were plated in six-well plates and treated with PBS, CDDP (25 μM) Ad-luc, Ad-mda7 (3000 vp/cell), Ad-mda7 plus CDDP or Ad-luc plus CDDP. […] Cells were harvested at 72 h after treatment and number of dead cells counted by the trypan blue assay.
CDDP-Resistant Tumor Cells are More Sensitive to Ad-mda7. […] Cells were harvested on day 3 and day 5 after treatment and number of dead cells counted by the trypan blue assay and analyzed for apoptotic markers by western blotting. […]

[6] = in vivo; cited from earlier work; remark: listed apart in the source
[7] = cited from earlier work
[8] = 15 minutes after intravenous administration; cited from earlier work
[9] = test system: multiple myeloma; details: oral administration; cited from earlier work
[10] = humans, intravenous administration; cited from earlier work
[11] = test system: Hodgkin's disease; details: cited from earlier work
[12] = usual clinical doses; cited from earlier work
[13] = mice; cited from earlier work
[14] = cited from earlier work; remark: listed apart in the source

Molecule: Cc1c2oc3c(C)ccc(C(=O)N[C@@H]4C(=O)N[C@H](C(C)C)C(=O)N5CCC[C@H]5C(=O)N(C)CC(=O)N(C)[C@@H](C(C)C)C(=O)O[C@@H]4C)c3nc-2c(C(=O)N[C@@H]2C(=O)N[C@H](C(C)C)C(=O)N3CCC[C@H]3C(=O)N(C)CC(=O)N(C)[C@@H](C(C)C)C(=O)O[C@@H]2C)c(N)c1=O [Actinomycin D] (I: T[dV]P[Sar][NMeV] / II: T[dV]P[Sar][NMeV]; ester I:1-I:C, II:1-II:C; linker I:N-II:N via Actinocin(9to1))
- passage of the blood-brain barrier [1]: does not pass the blood-brain barrier

Molecule: CS(=O)(=O)OCCCCOS(C)(=O)=O [Busulfan, 1,4-butanediol dimethanesulfonate]
- patients obtaining hematologic remission [2]: Approximately 90%

Molecule: [NH2][Pt]([NH2])([Cl])[Cl] [CDDP, Cisplatin]
- IC50 [3]: 30 µM
- IC50 [4]: 145 µM
- percent killing [5]: similar
- oral absorption [6]: not absorbed orally

Molecule: CC[C@@]1(O)C(=O)OCc2c1cc1n(c2=O)Cc2cc3ccccc3nc2-1 [Camptothecin]
- solubility (clear yellow solution) ([7]; camptothecin in DMSO 1N sodium hydroxide): 50 mg/mL (≈ 144 mM)
- storage stability ([7]; camptothecin, 2-8° C., dry, airtight, light-resistant): at least two
- water solubility ([7]; camptothecin): poor water-solubility

Molecule: O=NN(CCCl)C(=O)NCCCl [Carmustine, 1,3bis-(2-chloroethyl)-1-nitrosourea]
- solubility in water ([7]; carmustine): poorly soluble

Molecule: O=NN(CCCl)C(=O)NC1CCCCC1 [Lomustine, 1-(2-chloro-ethyl)-3-cyclohexyl-1 nitrosourea]
- tissue levels [8]: comparable to plasma levels
- ionization at a physiological pH ([7]; lomustine): relatively unionized
- solubility in 10% ethanol ([7]; lomustine): 0.05 mg per ml
- solubility in absolute alcohol ([7]; lomustine): 70 mg per ml
- solubility in water ([7]; lomustine): < 0.05 mg per ml

Molecule: N[C@@H](Cc1ccc(N(CCCl)CCCl)cc1)C(=O)O [Melphalan, 4-[bis(2-chloroethyl)amino]-L-phenylalanine]
- patients showing a favorable response [9]: about one third to one half
- solubility in water ([7]; melphalan): insoluble in water

Molecule: CO[C@@]12[C@H](COC(N)=O)C3=C(C(=O)C(C)=C(N)C3=O)N1C[C@@H]1N[C@@H]12 [Mitomycin]
- heat stability ([7]; mitomycin): heat stable
- clearance from the serum [10]: rapidly cleared

Molecule: CC[C@]1(O)C[C@@H]2CN(CCc3c([nH]c4ccccc34)[C@@](C(=O)OC)(c3cc4c(cc3OC)N(C)[C@H]3[C@@](O)(C(=O)OC)[C@H](OC(C)=O)[C@]5(CC)C=CCN6CC[C@]43[C@@H]65)C2)C1 [Vinblastine]
- cases with significant improvement [11]: 50 to 90%

Molecule: CC[C@]1(O)C[C@H]2CN(CCc3c([nH]c4ccccc34)[C@@](C(=O)OC)(c3cc4c(cc3OC)N(C=O)[C@H]3[C@@](O)(C(=O)OC)[C@H](OC(C)=O)[C@]5(CC)C=CCN6CC[C@]43[C@@H]65)C2)C1 [Vincristine]
- peak concentration in plasma [12]: approximately 0.4 mM

Molecule: Bleomycin
- concentrations in hematopoietic tissue / bone marrow [13]: low concentrations
- concentrations in skin, lungs, kidneys, peritoneum and lymphatics [13]: high concentrations
- administered dose recovered in the urine as active bleomycin ([14]; humans): 60% to 70
- plasma or serum terminal elimination half-life ([14]; patients with creatinine clearance <35 mL per minute, as clearance decreases): increases exponentially
- solubility in water ([7]; bleomycin): freely soluble in water
